Test results reported in ChEMBL document CHEMBL4804286, “3-amino-4-(4-(4 (dimethylcarbamoyl) phenyl)-1,4-diazepan-1-yl) thieno [2,3-b] pyridine-2-carboxamide for use in cancer therapy and formulations comprising the same” (2020).
Several values for one entry are separate records, joined by “and”; a condition that tells them apart may be missing. Equal values may be shown once. Activity calls are given as the source filed them. The calls are words filed in the database; no cut-off is given here.

Key:
[1] = molecular target: Homeodomain-interacting protein kinase 3 (Homo sapiens) (UniProt Q9H422); test: Inhibition of human HIPK3 assessed as percent of control at 2000 nM by KINOMEscan assay relative to control; parameters: scale not given: the % may be the effect or the level left
[2] = molecular target: High affinity nerve growth factor receptor (Homo sapiens) (UniProt P04629); test: Inhibition of human TRKA assessed as percent of control at 2000 nM by KINOMEscan assay relative to control; parameters: scale not given: the % may be the effect or the level left
[3] = molecular target: Calcium/calmodulin-dependent protein kinase kinase 2 (Homo sapiens) (UniProt Q96RR4); test: Inhibition of human CAMKK2 assessed as percent of control at 2000 nM by KINOMEscan assay relative to control; parameters: scale not given: the % may be the effect or the level left
[4] = molecular target: Protein-tyrosine kinase 6 (Homo sapiens) (UniProt Q13882); test: Inhibition of human BRK assessed as percent of control at 2000 nM by KINOMEscan assay relative to control; parameters: scale not given: the % may be the effect or the level left
[5] = molecular target: Misshapen-like kinase 1 (Homo sapiens) (UniProt Q8N4C8); test: Inhibition of human MINK assessed as percent of control at 2000 nM by KINOMEscan assay relative to control; parameters: scale not given: the % may be the effect or the level left
MDA-MB-468 = test: Antitumor activity against human MDA-MB-468 cells xenografted in female immunodeficient NSG mouse assessed as decrease in tumor weight at 250 ppm, po incorporated into medicated diet for 13 days followed by 5 mg/kg, po dose administered daily and after 37 days administered 8 mg/kg, po dose; format: functional, organism-based
[6] = molecular target: Calcium/calmodulin-dependent protein kinase type IV (Homo sapiens) (UniProt Q16566); test: Inhibition of human CAMK4 assessed as percent of control at 2000 nM by KINOMEscan assay relative to control; parameters: scale not given: the % may be the effect or the level left
[7] = molecular target: Serine/threonine-protein kinase TAO3 (Homo sapiens) (UniProt Q9H2K8); test: Inhibition of human TAOK3 assessed as percent of control at 2000 nM by KINOMEscan assay relative to control; parameters: scale not given: the % may be the effect or the level left
CWR22R [8] = test: Antitumor activity against human 22Rv1 cells expressing AR-V7 xenografted in male nude mouse assessed as suppression of tumor growth at 25 mg/kg, administered twice a day for 40 days; format: functional, organism-based
[9] = molecular target: Glycogen synthase kinase-3 alpha (Homo sapiens) (UniProt P49840); settings: INHIBITOR, dose 2000.0 nM
Description: Inhibition of human GSK3A at 2000 nM by KINOMEscan assay

[10] = molecular target: Bone morphogenetic protein receptor type-2 (Homo sapiens) (UniProt Q13873); test: Inhibition of human BMPR2 assessed as percent of control at 2000 nM by KINOMEscan assay relative to control; parameters: scale not given: the % may be the effect or the level left
[11] = molecular target: Mitogen-activated protein kinase 3 (Homo sapiens) (UniProt P27361); test: Inhibition of human ERK1 assessed as percent of control at 2000 nM by KINOMEscan assay relative to control; parameters: scale not given: the % may be the effect or the level left
Mitogen-activated protein kinase 3 (Homo sapiens), sequence (P27361 whole entry, the tested form may be a part): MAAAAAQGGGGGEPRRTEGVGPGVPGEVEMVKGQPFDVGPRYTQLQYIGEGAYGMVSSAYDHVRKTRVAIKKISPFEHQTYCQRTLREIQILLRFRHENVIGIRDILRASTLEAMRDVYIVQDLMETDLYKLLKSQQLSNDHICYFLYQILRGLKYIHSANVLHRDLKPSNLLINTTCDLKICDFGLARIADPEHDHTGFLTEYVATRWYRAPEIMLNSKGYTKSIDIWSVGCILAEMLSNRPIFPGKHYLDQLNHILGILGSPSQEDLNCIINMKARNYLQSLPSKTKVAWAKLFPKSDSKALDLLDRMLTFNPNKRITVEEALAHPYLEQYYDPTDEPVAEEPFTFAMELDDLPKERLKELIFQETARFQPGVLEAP

[12] = molecular target: Ribosomal protein S6 kinase alpha-1 (Homo sapiens) (UniProt Q15418); test: Inhibition of human C-terminal RSK1 kinase domain 2 assessed as percent of control at 2000 nM by KINOMEscan assay relative to control; parameters: scale not given: the % may be the effect or the level left
Ribosomal protein S6 kinase alpha-1 (Homo sapiens), sequence (Q15418 whole entry, the tested form may be a part): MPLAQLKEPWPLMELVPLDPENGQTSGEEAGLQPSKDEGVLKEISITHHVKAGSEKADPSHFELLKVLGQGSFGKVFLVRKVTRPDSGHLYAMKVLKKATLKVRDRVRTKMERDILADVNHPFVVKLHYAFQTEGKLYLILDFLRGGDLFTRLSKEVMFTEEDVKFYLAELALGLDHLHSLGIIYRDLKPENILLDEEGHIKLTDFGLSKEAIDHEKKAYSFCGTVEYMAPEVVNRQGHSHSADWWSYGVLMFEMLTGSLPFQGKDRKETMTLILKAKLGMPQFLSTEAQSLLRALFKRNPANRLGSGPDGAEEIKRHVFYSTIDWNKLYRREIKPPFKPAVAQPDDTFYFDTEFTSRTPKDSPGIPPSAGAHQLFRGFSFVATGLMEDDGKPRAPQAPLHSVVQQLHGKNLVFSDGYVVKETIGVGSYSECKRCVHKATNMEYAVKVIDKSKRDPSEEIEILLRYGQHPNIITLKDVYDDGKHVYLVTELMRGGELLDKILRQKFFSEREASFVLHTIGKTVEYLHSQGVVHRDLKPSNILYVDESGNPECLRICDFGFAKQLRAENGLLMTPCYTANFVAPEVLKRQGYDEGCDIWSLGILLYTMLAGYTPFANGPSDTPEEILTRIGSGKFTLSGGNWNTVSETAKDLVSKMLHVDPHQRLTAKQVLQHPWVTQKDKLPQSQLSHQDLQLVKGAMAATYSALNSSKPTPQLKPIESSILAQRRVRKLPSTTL

[13] = molecular target: Aurora kinase B (Homo sapiens) (UniProt Q96GD4); test: Inhibition of human AURKB assessed as percent of control at 2000 nM by KINOMEscan assay relative to control; parameters: scale not given: the % may be the effect or the level left
Aurora kinase B (Homo sapiens), sequence (Q96GD4 whole entry): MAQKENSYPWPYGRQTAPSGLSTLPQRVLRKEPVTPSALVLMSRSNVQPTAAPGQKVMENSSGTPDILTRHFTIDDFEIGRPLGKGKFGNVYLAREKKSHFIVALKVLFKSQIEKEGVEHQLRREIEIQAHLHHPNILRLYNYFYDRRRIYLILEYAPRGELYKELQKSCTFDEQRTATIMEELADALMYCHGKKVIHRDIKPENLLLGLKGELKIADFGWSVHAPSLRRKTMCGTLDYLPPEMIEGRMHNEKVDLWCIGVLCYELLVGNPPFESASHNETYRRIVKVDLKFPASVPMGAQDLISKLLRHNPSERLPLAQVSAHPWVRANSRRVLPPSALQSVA

[14] = molecular target: AP2-associated protein kinase 1 (Homo sapiens) (UniProt Q2M2I8); test: Inhibition of human AAK1 assessed as percent of control at 2000 nM by KINOMEscan assay relative to control; parameters: scale not given: the % may be the effect or the level left
[15] = molecular target: Serine/threonine-protein kinase STK11 (Homo sapiens) (UniProt Q15831); test: Inhibition of human LKB1 assessed as percent of control at 2000 nM by KINOMEscan assay relative to control; parameters: scale not given: the % may be the effect or the level left
[16] = molecular target: Tyrosine-protein kinase JAK2 (Homo sapiens) (UniProt O60674); test: Inhibition of human JAK2 JH1 catalytic domain assessed as percent of control at 2000 nM by KINOMEscan assay relative to control; parameters: scale not given: the % may be the effect or the level left
[17] = molecular target: Ephrin type-B receptor 6 (Homo sapiens) (UniProt O15197); test: Inhibition of human EPHB6 assessed as percent of control at 2000 nM by KINOMEscan assay relative to control; parameters: scale not given: the % may be the effect or the level left
[18] = molecular target: Serine/threonine-protein kinase 38-like (Homo sapiens) (UniProt Q9Y2H1); test: Inhibition of human NDR2 assessed as percent of control at 2000 nM by KINOMEscan assay relative to control; parameters: scale not given: the % may be the effect or the level left
[19] = molecular target: Mitogen-activated protein kinase kinase kinase kinase 3 (Homo sapiens) (UniProt Q8IVH8); test: Inhibition of human MAP4K3 assessed as percent of control at 2000 nM by KINOMEscan assay relative to control; parameters: scale not given: the % may be the effect or the level left
Mitogen-activated protein kinase kinase kinase kinase 3 (Homo sapiens), sequence (Q8IVH8 whole entry): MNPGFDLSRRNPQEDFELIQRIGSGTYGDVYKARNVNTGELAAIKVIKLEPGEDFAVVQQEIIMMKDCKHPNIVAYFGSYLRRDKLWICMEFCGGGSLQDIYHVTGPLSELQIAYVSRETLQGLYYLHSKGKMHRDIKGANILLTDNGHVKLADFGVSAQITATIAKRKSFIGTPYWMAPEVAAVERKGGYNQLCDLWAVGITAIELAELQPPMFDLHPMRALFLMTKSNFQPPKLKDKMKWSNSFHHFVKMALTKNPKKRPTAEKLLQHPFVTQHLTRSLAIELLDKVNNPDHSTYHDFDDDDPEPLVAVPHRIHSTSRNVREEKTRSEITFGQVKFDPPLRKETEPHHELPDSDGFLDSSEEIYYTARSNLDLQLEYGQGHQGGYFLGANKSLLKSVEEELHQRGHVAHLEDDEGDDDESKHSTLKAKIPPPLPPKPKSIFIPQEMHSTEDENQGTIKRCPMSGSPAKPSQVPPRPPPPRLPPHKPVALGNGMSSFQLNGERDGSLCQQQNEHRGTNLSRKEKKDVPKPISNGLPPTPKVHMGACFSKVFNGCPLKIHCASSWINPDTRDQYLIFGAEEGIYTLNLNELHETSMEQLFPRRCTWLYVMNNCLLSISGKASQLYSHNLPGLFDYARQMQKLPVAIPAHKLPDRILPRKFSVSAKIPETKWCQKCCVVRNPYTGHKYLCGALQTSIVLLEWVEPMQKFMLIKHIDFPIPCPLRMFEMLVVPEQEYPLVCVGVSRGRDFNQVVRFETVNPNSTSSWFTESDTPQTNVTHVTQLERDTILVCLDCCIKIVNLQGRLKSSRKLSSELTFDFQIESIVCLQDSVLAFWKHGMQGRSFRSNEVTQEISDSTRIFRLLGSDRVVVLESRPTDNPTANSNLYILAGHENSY

[20] = molecular target: Serine/threonine-protein kinase 10 (Homo sapiens) (UniProt O94804); test: Inhibition of human LOK assessed as percent of control at 2000 nM by KINOMEscan assay relative to control; parameters: scale not given: the % may be the effect or the level left
[21] = molecular target: Serine/threonine-protein kinase 3 (Homo sapiens) (UniProt Q13188); test: Inhibition of human MST2 assessed as percent of control at 2000 nM by KINOMEscan assay relative to control; parameters: scale not given: the % may be the effect or the level left
[22] = molecular target: Ephrin type-B receptor 1 (Homo sapiens) (UniProt P54762); test: Inhibition of human EPHB1 assessed as percent of control at 2000 nM by KINOMEscan assay relative to control; parameters: scale not given: the % may be the effect or the level left
[23] = molecular target: Receptor tyrosine-protein kinase erbB-3 (Homo sapiens) (UniProt P21860); test: Inhibition of human ERBB3 assessed as percent of control at 2000 nM by KINOMEscan assay relative to control; parameters: scale not given: the % may be the effect or the level left
[24] = system: Proto-oncogene tyrosine-protein kinase receptor Ret (Homo sapiens), P07949 [M918T]; test: Inhibition of human RET M918T mutant assessed as percent of control at 2000 nM by KINOMEscan assay relative to control; parameters: scale not given: the % may be the effect or the level left
[25] = molecular target: Leucine-rich repeat serine/threonine-protein kinase 2 (Homo sapiens) (UniProt Q5S007); test: Inhibition of human LRRK2 assessed as percent of control at 2000 nM by KINOMEscan assay relative to control; parameters: scale not given: the % may be the effect or the level left
Leucine-rich repeat serine/threonine-protein kinase 2 (Homo sapiens), sequence (Q5S007 whole entry): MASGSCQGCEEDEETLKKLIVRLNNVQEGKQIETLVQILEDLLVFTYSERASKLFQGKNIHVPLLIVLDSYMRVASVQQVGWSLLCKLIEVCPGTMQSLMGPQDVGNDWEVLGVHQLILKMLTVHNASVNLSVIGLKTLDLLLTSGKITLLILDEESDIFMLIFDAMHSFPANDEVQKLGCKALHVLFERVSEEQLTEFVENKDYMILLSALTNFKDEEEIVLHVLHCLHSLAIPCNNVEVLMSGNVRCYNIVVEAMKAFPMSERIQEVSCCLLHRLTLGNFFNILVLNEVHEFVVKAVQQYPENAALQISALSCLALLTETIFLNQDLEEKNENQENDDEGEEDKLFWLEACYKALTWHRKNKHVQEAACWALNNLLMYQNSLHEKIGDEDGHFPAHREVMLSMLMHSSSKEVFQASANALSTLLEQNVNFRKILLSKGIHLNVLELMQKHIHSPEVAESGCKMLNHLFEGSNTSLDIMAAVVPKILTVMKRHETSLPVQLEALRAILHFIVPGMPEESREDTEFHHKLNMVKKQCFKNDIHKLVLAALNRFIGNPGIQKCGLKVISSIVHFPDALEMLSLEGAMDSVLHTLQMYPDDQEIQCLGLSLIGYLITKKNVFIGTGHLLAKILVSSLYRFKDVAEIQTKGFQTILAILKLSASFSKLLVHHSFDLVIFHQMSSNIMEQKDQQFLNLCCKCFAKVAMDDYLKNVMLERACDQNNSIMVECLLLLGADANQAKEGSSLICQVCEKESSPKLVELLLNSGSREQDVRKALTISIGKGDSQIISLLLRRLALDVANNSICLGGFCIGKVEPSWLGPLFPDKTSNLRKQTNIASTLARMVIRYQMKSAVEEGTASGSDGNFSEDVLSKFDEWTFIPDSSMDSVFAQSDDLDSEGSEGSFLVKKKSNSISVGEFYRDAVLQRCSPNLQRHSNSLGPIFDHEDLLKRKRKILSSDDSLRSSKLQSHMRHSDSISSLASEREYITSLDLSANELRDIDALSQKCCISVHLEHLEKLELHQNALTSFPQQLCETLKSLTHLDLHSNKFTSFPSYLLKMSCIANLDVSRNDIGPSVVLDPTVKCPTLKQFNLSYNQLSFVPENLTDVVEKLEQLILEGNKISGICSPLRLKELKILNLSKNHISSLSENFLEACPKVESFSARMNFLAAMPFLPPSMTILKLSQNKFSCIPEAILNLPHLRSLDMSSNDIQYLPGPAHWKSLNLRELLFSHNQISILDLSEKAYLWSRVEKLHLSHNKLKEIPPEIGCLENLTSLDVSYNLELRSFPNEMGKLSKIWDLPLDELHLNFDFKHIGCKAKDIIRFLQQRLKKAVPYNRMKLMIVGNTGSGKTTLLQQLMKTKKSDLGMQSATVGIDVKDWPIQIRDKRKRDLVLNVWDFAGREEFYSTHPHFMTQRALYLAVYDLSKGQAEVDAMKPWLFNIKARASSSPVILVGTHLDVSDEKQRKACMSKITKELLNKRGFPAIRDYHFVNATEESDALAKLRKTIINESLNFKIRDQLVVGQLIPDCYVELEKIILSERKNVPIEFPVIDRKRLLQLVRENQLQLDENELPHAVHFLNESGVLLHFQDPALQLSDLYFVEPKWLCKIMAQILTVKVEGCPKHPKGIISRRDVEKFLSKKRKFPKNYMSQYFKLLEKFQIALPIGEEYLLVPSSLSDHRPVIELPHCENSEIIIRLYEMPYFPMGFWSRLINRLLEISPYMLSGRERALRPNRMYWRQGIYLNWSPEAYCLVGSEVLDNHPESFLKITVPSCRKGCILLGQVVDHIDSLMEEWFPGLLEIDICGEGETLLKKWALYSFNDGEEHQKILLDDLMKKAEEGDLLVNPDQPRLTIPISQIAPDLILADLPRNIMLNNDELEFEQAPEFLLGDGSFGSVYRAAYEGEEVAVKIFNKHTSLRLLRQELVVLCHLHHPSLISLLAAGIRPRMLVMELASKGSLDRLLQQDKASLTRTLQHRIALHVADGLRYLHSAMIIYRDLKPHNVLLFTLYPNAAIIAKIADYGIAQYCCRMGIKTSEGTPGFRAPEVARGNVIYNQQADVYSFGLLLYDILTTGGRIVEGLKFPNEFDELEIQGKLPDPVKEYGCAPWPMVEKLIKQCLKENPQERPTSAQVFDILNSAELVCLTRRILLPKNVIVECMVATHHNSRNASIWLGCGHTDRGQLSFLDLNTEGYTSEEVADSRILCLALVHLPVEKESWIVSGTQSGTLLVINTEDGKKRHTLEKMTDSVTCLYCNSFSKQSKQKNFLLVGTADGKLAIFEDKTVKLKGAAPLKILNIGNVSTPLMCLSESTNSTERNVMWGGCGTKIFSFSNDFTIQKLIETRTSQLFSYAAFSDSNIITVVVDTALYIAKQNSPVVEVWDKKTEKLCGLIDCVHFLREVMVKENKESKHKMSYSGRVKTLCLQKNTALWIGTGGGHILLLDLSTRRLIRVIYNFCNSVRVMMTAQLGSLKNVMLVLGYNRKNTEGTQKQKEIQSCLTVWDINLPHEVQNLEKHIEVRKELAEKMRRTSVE

[26] = molecular target: Mitogen-activated protein kinase kinase kinase kinase 1 (Homo sapiens) (UniProt Q92918); test: Inhibition of human HPK1 assessed as percent of control at 2000 nM by KINOMEscan assay relative to control; parameters: scale not given: the % may be the effect or the level left
[27] = molecular target: Hepatocyte growth factor receptor (Homo sapiens) (UniProt P08581); test: Inhibition of human MET assessed as percent of control at 2000 nM by KINOMEscan assay relative to control; parameters: scale not given: the % may be the effect or the level left
[28] = system: Tyrosine-protein kinase ABL1 (Homo sapiens), P00519 [F317I]; test: Inhibition of non-phosphorylated human ABL1 F317I mutant assessed as percent of control at 2000 nM by KINOMEscan assay relative to control; parameters: scale not given: the % may be the effect or the level left
CWR22R [29] = test: Antitumor activity against human 22Rv1 cells expressing AR-V7 xenografted in male nude mouse assessed as suppression of tumor growth at 50 mg/kg, po administered daily for 15 days; format: functional, organism-based
[30] = molecular target: Dual specificity protein kinase TTK (Homo sapiens) (UniProt P33981); test: Inhibition of human TTK assessed as percent of control at 2000 nM by KINOMEscan assay relative to control; parameters: scale not given: the % may be the effect or the level left

Question: Which results are given for `CN(C)C(=O)c1ccc(N2CCCN(c3ccnc4sc(C(N)=O)c(N)c34)CC2)cc1`?
Answer: Activity [1]: 77% and 81%; Activity [2]: 93% and 78%; Activity [3]: 100% and 87%; Activity [4]: 100% and 99%; Activity [5]: 100% and 87%; Activity (MDA-MB-468): Active; Activity [6]: 96% and 79%; Activity [7]: 98% and 73%; Activity (CWR22R [8]): Active; inhibition [9]: > 65%; Activity [10]: 79% and 88%; Activity [11]: 100% and 97%; Activity [12]: 100% and 86%; Activity [13]: 91% and 90%; Activity [14]: 94% and 90%; Activity [15]: 100% and 87%; Activity [16]: 100% and 93%; Activity [17]: 95% and 89%; Activity [18]: 99%; Activity ([18]; INHIBITOR): 36%; Activity [19]: 91% and 95%; Activity [20]: 84% and 69%; Activity [21]: 100% and 84%; Activity [22]: 88%; Activity [23]: 100% and 88%; Activity [24]: 98%; Activity [25]: 94% and 70%; Activity [26]: 98% and 100%; Activity [27]: 99% and 92%; Activity [28]: 100% and 93%; Activity (CWR22R [29]): Active; Activity [30]: 83% and 80%
